Read-outs that look alike come from different tables or passages of the source.
Columns and labels:
Test in all cases: agar dilution assay, antifungal activity (MIC)
Format in all cases: cell-based
[1] = tested on: Ca. pseudotropicallis; conditions: Ca. pseudotropicallis MY1040; yeast nitrogen base plus glucose agar, 28°C, 48 hours; read-out: MINIMUM INHIBITORY CONCENTRATION
Experimental: (§1) The antifungal activity of the compound of formula I was determined by an agar dilution assay as follows: […]
(§2) The compound of formula I was added to cooled, molten yeast nitrogen base plus glucose agar (1.0 ml of drug plus 9.0 ml agar). Appropriate solvent and media controls (drug free) also were prepared. Prepared plates were stored in the dark at room temperature overnight prior to use.
(§3) The yeast cultures, maintained in yeast maltose (YM) broth, were transferred to fresh YM medium and incubated overnight at 37°C with shaking (250 rpm). After incubation, each culture was diluted in sterile saline to yield final concentrations of 3 x 10⁵ to 3 x 10⁶ colony forming units (CFU)/ml. The isolates of Aspergillus and Penicillium were maintained on potato dextrose agar slants and spore suspensions made following vigourous shaking with sterile glass beads. The spore preparations were used as the inocula for these three filamentous fungi.
(§4) Each prepared plate was inoculated with 21 yeast-like and filamentous fungi using a Denley Multipoint Inoculator (Denley, Sussex, England). The inoculator delivers approximately 0.001 ml to the agar surface resulting in inoculation of from 3 x 10² to 3 x 10³ CFUs. The plates were incubated at 28°C for 48 hours. The minimum inhibitory concentrations (MICs) were recorded as the lowest concentration of drug showing no growth or less than three CFU/spot.

[2] = tested on: A. flavus; conditions: Aspergillus flavus; A. flavus MF0383; spore inoculum, yeast nitrogen base plus glucose agar, 28°C, 48 hours; read-out: MINIMUM INHIBITORY CONCENTRATION
Experimental: as §1, §2, §3, §4

[3] = tested on: Ca. tropicalis; conditions: Candida tropicalis, 48 h, 28°C, read-out: MINIMUM INHIBITORY CONCENTRATION
Experimental: as §1, §2, §3, §4

[4] = tested on: Ca. stellatoidea; conditions: Candida albicans; Ca. stellatoidea MY1018; yeast nitrogen base plus glucose agar, 28°C, 48 hours; read-out: MINIMUM INHIBITORY CONCENTRATION
Experimental: as §1, §2, §3, §4

[5] = tested on: Ca. parapsilosis; conditions: Lodderomyces parapsilosis, 48 h, 28°C, read-out: MINIMUM INHIBITORY CONCENTRATION
Experimental: as §1, §2, §3, §4

[6] = tested on: Aspergillus fumigatus; conditions: Aspergillus fumigatus MF4839; spore inoculum, yeast nitrogen base plus glucose agar, 28°C, 48 hours; read-out: MINIMUM INHIBITORY CONCENTRATION
Experimental: as §1, §2, §3, §4

[7] = tested on: Crypotococcus neoformans; conditions: yeast nitrogen base plus glucose agar, 28°C, 48 hours, read-out: MINIMUM INHIBITORY CONCENTRATION
Experimental: as §1, §2, §3, §4

[8] = tested on: Candida albicans; conditions: 48 h, 28°C, read-out: MINIMUM INHIBITORY CONCENTRATION
Experimental: as §1, §2, §3, §4

[9] = tested on: Torulopsis glabrata; conditions: Nakaseomyces glabratus; Torulopsis glabrata MY1059; yeast nitrogen base plus glucose agar, 28°C, 48 hours; read-out: MINIMUM INHIBITORY CONCENTRATION
Experimental: as §1, §2, §3, §4

[10] = tested on: Sac. cerevisiae; conditions: Saccharomyces cerevisiae; Sac. cerevisiae MY1027; yeast nitrogen base plus glucose agar, 28°C, 48 hours; read-out: MINIMUM INHIBITORY CONCENTRATION
Experimental: as §1, §2, §3, §4

[11] = tested on: Ca. rugosa; conditions: Diutina rugosa; Ca. rugosa MY1022; yeast nitrogen base plus glucose agar, 28°C, 48 hours; read-out: MINIMUM INHIBITORY CONCENTRATION
Experimental: as §1, §2, §3, §4

[12] = tested on: Ca. guilliermondii; conditions: Meyerozyma guilliermondii; Ca. guilliermondii MY1019; yeast nitrogen base plus glucose agar, 28°C, 48 hours; read-out: MINIMUM INHIBITORY CONCENTRATION
Experimental: as §1, §2, §3, §4

[13] = tested on: Penicillium italicum; conditions: Penicillium italicum MF2819; spore inoculum, yeast nitrogen base plus glucose agar, 28°C, 48 hours; read-out: MINIMUM INHIBITORY CONCENTRATION
Experimental: as §1, §2, §3, §4

[14] = tested on: Ca. krusei; conditions: Pichia kudriavzevii; Ca. krusei MY1020; yeast nitrogen base plus glucose agar, 28°C, 48 hours; read-out: MINIMUM INHIBITORY CONCENTRATION
Experimental: as §1, §2, §3, §4

In the case of `C#CC#CC#CC(O)C1OC(=O)OC1CCCCCCC(=O)O` (stereo not drawn) [compound of formula I], the MIC [1] is reported as 0.94 µg/mL, the MIC [2] is reported as over 30 µg/mL and the MIC ([3]; Ca. tropicalis MY1011, yeast nitrogen base plus glucose agar) is reported as 15 µg/mL. The MIC ([3]; Ca. tropicalis MY1012, yeast nitrogen base plus glucose agar) was 1.88 µg/mL, the MIC [4] was 7.5 µg/mL and the MIC ([5]; Ca. parapsilosis MY1009, yeast nitrogen base plus glucose agar) was 1.88 µg/mL. It also gave an MIC ([5]; Ca. parapsilosis MY1010, yeast nitrogen base plus glucose agar) of 0.47 µg/mL, an MIC [6] of over 30 µg/mL and an MIC ([7]; Cr. neoformans MY1146) of 3.75 µg/mL. It also gave an MIC ([7]; Crypotococcus neoformans MY1051) of 1.88 µg/mL, an MIC ([8]; Ca. albicans MY0992, yeast nitrogen base plus glucose agar) of 7.5 µg/mL and an MIC ([8]; Ca. albicans MY1013, yeast nitrogen base plus glucose agar) of 0.47 µg/mL. The MIC ([8]; Ca. albicans MY1029, yeast nitrogen base plus glucose agar) was 0.47 µg/mL, the MIC ([8]; Ca. albicans MY1055, yeast nitrogen base plus glucose agar) was 0.47 µg/mL and the MIC ([8]; Candida albicans MY1058, yeast nitrogen base plus glucose agar) was 0.47 µg/mL. The MIC [9] was 1.88 µg/mL, the MIC [10] was 1.88 µg/mL and the MIC [11] was 7.5 µg/mL. For the same molecule, the MIC [12] was 7.5 µg/mL, the MIC [13] was 7.5 µg/mL and the MIC [14] was 30 µg/mL.
